Results as given in patent US12629468B2, “Devices and methods for delivering synergistic active agents to target sites” (IRRIMAX Corporation, priority 2023, dated 2026).

What was measured:
Type in all cases: cell-based
P. aeruginosa = experiment: Chequerboard assay, FIC and synergy analysis
Protocol: (§1) Chlorhexidine gluconate (CHG) and ethyl lauroyl arginate hydrochloride (LAE) were analyzed by chequerboard assay with each test organism to determine potential additive, synergistic, and antagonistic activity. The test organisms S. aureus, P. aeruginosa, and E. coli were tested at ranges of chlorhexidine gluconate (0.122-15.625 μg/mL, 1.25-160 μg/mL, and 0.125-16 μg/mL, respectively) and ethyl lauroyl arginate hydrochloride (LAE) (0.117-15 μg/mL, 0.4688-60 μg/mL, and 0.2344-30 μg/mL, respectively). FIC was calculated by the following Equation 2: […]

E. coli = experiment: Chequerboard assay, FIC and synergy analysis
Protocol: as §1

S. aureus = experiment: Chequerboard assay, FIC and synergy analysis
Protocol: as §1

E. coli (ATCC BAA 1427) [1] = experiment: Minimal bactericidal concentration by serial 2-fold dilution; conditions: for Number of Colonies: average over triplicate
Protocol: (§2) The minimal bactericidal concentration (MBC) of ethyl lauroyl arginate hydrochloride (LAE) was determined against S. aureus (ATCC 6538), P. aeruginosa (ATCC 15442), and E. coli (ATCC BAA 1427) by serial 2-fold dilution experiments. A solution of chlorhexidine (0.025% w/w) was used as a positive control and comparator.

S. aureus (ATCC 6538) [2] = experiment: as above; conditions: for Number of Colonies: average over triplicate
Protocol: as §2

[3] = tested on: P. aeruginosa (ATCC 15442); experiment: as above; conditions: for Number of Colonies: average over triplicate
Protocol: as §2

E. coli (ATCC BAA 1427) [4] = experiment: Minimum inhibitory concentration / growth inhibition by serial 2-fold dilution; conditions: average of triplicate
Protocol: as §2, with “inhibitory” for “bactericidal”, “(MIC, the minimum inhibitory concentration required for 90% growth reduction)” for “(MBC)”, “hydrochloride” for “hydrochloride (LAE)”

S. aureus (ATCC 6538) [5] = experiment: as above; conditions: for Average Growth Inhibition (%): average of triplicate
Protocol: as §2, with “inhibitory” for “bactericidal”, “(MIC, the minimum inhibitory concentration required for 90% growth reduction)” for “(MBC)”, “hydrochloride” for “hydrochloride (LAE)”

[6] = tested on: P. aeruginosa (ATCC 15442); experiment: as above; conditions: for Average Growth Inhibition (%): average of triplicate
Protocol: as §2, with “inhibitory” for “bactericidal”, “(MIC, the minimum inhibitory concentration required for 90% growth reduction)” for “(MBC)”, “hydrochloride” for “hydrochloride (LAE)”

[7] = defined as having less than 500 CFU/mL, hydrochloride
[8] = inhibited greater than 90% growth

Structure (SMILES): CCCCCCCCCCCC(=O)N[C@@H](CCCN=C(N)N)C(=O)OCC.Cl [ethyl lauroyl arginate hydrochloride]
- MIC of LAE Alone (P. aeruginosa; alone): 30 µg/mL
- MIC of LAE in Presence of CHG (P. aeruginosa; in presence of CHG): 7.5 µg/mL
- MIC of LAE Alone (E. coli; alone): 15 µg/mL
- MIC of LAE in Presence of CHG (E. coli; in presence of CHG): 3.75 µg/mL
- MIC of LAE Alone (S. aureus; alone): 3.75 µg/mL
- MIC of LAE in Presence of CHG (S. aureus; in presence of CHG): 1.875 µg/mL
- CFU/mL (E. coli (ATCC BAA 1427) [1]; 0.46875 μg/mL): Lawn
- Number of Colonies (E. coli (ATCC BAA 1427) [1]; 0.46875 μg/mL): Lawn (‘Lawn’ indicates too many colonies to accurately count (e.g., greater than 250 colonies on an agar plate))
- CFU/mL (E. coli (ATCC BAA 1427) [1]; 0.9375 μg/mL): Lawn
- Number of Colonies (E. coli (ATCC BAA 1427) [1]; 0.9375 μg/mL): Lawn (‘Lawn’ indicates too many colonies to accurately count (e.g., greater than 250 colonies on an agar plate))
- CFU/mL (E. coli (ATCC BAA 1427) [1]; 1.875 μg/mL): Lawn
- Number of Colonies (E. coli (ATCC BAA 1427) [1]; 1.875 μg/mL): Lawn (‘Lawn’ indicates too many colonies to accurately count (e.g., greater than 250 colonies on an agar plate))
- CFU/mL (E. coli (ATCC BAA 1427) [1]; 3.75 μg/mL): Lawn
- Number of Colonies (E. coli (ATCC BAA 1427) [1]; 3.75 μg/mL): Lawn (‘Lawn’ indicates too many colonies to accurately count (e.g., greater than 250 colonies on an agar plate))
- CFU/mL (E. coli (ATCC BAA 1427) [1]; 7.5 μg/mL): Lawn
- Number of Colonies (E. coli (ATCC BAA 1427) [1]; 7.5 μg/mL): Lawn (‘Lawn’ indicates too many colonies to accurately count (e.g., greater than 250 colonies on an agar plate))
- CFU/mL (E. coli (ATCC BAA 1427) [1]; 15 μg/mL): 0 CFU/mL
- Number of Colonies (E. coli (ATCC BAA 1427) [1]; 15 μg/mL): 0
- CFU/mL (E. coli (ATCC BAA 1427) [1]; 30 μg/mL): 0 CFU/mL
- Number of Colonies (E. coli (ATCC BAA 1427) [1]; 30 μg/mL): 0
- CFU/mL (E. coli (ATCC BAA 1427) [1]; 60 μg/mL): 0 CFU/mL
- Number of Colonies (E. coli (ATCC BAA 1427) [1]; 60 μg/mL): 0
- MBC (E. coli (ATCC BAA 1427) [1]; [7]): 15 µg/mL
- CFU/mL (S. aureus (ATCC 6538) [2]; 0.46875 μg/mL): Lawn
- Number of Colonies (S. aureus (ATCC 6538) [2]; 0.46875 μg/mL): Lawn (‘Lawn’ indicates too many colonies to accurately count (e.g., greater than 250 colonies on an agar plate))
- CFU/mL (S. aureus (ATCC 6538) [2]; 0.9375 μg/mL): Lawn
- Number of Colonies (S. aureus (ATCC 6538) [2]; 0.9375 μg/mL): Lawn (‘Lawn’ indicates too many colonies to accurately count (e.g., greater than 250 colonies on an agar plate))
- CFU/mL (S. aureus (ATCC 6538) [2]; 1.875 μg/mL): Lawn
- Number of Colonies (S. aureus (ATCC 6538) [2]; 1.875 μg/mL): Lawn (‘Lawn’ indicates too many colonies to accurately count (e.g., greater than 250 colonies on an agar plate))
- CFU/mL (S. aureus (ATCC 6538) [2]; 3.75 μg/mL): 500 CFU/mL
- Number of Colonies (S. aureus (ATCC 6538) [2]; 3.75 μg/mL): 5
- CFU/mL (S. aureus (ATCC 6538) [2]; 7.5 μg/mL): 0 CFU/mL
- Number of Colonies (S. aureus (ATCC 6538) [2]; 7.5 μg/mL): 0
- CFU/mL (S. aureus (ATCC 6538) [2]; 15 μg/mL): 0 CFU/mL
- Number of Colonies (S. aureus (ATCC 6538) [2]; 15 μg/mL): 0
- CFU/mL (S. aureus (ATCC 6538) [2]; 30 μg/mL): 0 CFU/mL
- Number of Colonies (S. aureus (ATCC 6538) [2]; 30 μg/mL): 0
- CFU/mL (S. aureus (ATCC 6538) [2]; 60 μg/mL): 0 CFU/mL
- Number of Colonies (S. aureus (ATCC 6538) [2]; 60 μg/mL): 0
- MBC (S. aureus (ATCC 6538) [2]; [7]): 3.75 µg/mL
- CFU/mL ([3]; 0.46875 μg/mL): Lawn
- Number of Colonies ([3]; 0.46875 μg/mL): Lawn (‘Lawn’ indicates too many colonies to accurately count (e.g., greater than 250 colonies on an agar plate))
- CFU/mL ([3]; 0.9375 μg/mL): Lawn
- Number of Colonies ([3]; 0.9375 μg/mL): Lawn (‘Lawn’ indicates too many colonies to accurately count (e.g., greater than 250 colonies on an agar plate))
- CFU/mL ([3]; 1.875 μg/mL): Lawn
- Number of Colonies ([3]; 1.875 μg/mL): Lawn (‘Lawn’ indicates too many colonies to accurately count (e.g., greater than 250 colonies on an agar plate))
- CFU/mL ([3]; 3.75 μg/mL): Lawn
- Number of Colonies ([3]; 3.75 μg/mL): Lawn (‘Lawn’ indicates too many colonies to accurately count (e.g., greater than 250 colonies on an agar plate))
- CFU/mL ([3]; 7.5 μg/mL): Lawn
- Number of Colonies ([3]; 7.5 μg/mL): Lawn (‘Lawn’ indicates too many colonies to accurately count (e.g., greater than 250 colonies on an agar plate))
- CFU/mL ([3]; 15 μg/mL): Lawn
- Number of Colonies ([3]; 15 μg/mL): Lawn (‘Lawn’ indicates too many colonies to accurately count (e.g., greater than 250 colonies on an agar plate))
- CFU/mL ([3]; 30 μg/mL): 0 CFU/mL
- Number of Colonies ([3]; 30 μg/mL): 0
- CFU/mL ([3]; 60 μg/mL): 0 CFU/mL
- Number of Colonies ([3]; 60 μg/mL): 0
- MBC [3, 7]: 30 µg/mL
- Average Growth Inhibition (%) (E. coli (ATCC BAA 1427) [4]; 0.46875 μg/mL): 3%
- Average Growth Inhibition (%) (E. coli (ATCC BAA 1427) [4]; 0.9375 μg/mL): 6%
- Average Growth Inhibition (%) (E. coli (ATCC BAA 1427) [4]; 1.875 μg/mL): 5%
- Average Growth Inhibition (%) (E. coli (ATCC BAA 1427) [4]; 3.75 μg/mL): 4%
- Average Growth Inhibition (%) (E. coli (ATCC BAA 1427) [4]; 7.5 μg/mL): 4%
- Average Growth Inhibition (%) (E. coli (ATCC BAA 1427) [4]; 15 μg/mL): 100%
- Average Growth Inhibition (%) (E. coli (ATCC BAA 1427) [4]; 30 μg/mL): 100%
- Average Growth Inhibition (%) (E. coli (ATCC BAA 1427) [4]; 60 μg/mL): 99%
- Average Growth Inhibition (%) (S. aureus (ATCC 6538) [5]; 0.46875 μg/mL): 7%
- Average Growth Inhibition (%) (S. aureus (ATCC 6538) [5]; 0.9375 μg/mL): -1%
- Average Growth Inhibition (%) (S. aureus (ATCC 6538) [5]; 1.875 μg/mL): -17%
- Average Growth Inhibition (%) (S. aureus (ATCC 6538) [5]; 3.75 μg/mL): 100%
- Average Growth Inhibition (%) (S. aureus (ATCC 6538) [5]; 7.5 μg/mL): 101%
- Average Growth Inhibition (%) (S. aureus (ATCC 6538) [5]; 15 μg/mL): 101%
- Average Growth Inhibition (%) (S. aureus (ATCC 6538) [5]; 30 μg/mL): 97%
- Average Growth Inhibition (%) (S. aureus (ATCC 6538) [5]; 60 μg/mL): 93%
- MIC (S. aureus (ATCC 6538) [5]; [8]): 3.75 µg/mL
- Average Growth Inhibition (%) ([6]; 0.46875 μg/mL): 2%
- Average Growth Inhibition (%) ([6]; 0.9375 μg/mL): 2%
- Average Growth Inhibition (%) ([6]; 1.875 μg/mL): 2%
- Average Growth Inhibition (%) ([6]; 3.75 μg/mL): 4%
- Average Growth Inhibition (%) ([6]; 7.5 μg/mL): 5%
- Average Growth Inhibition (%) ([6]; 15 μg/mL): 2%
- Average Growth Inhibition (%) ([6]; 30 μg/mL): 100%
- Average Growth Inhibition (%) ([6]; 60 μg/mL): 99%
- MIC [6, 8]: 30 µg/mL
